Source: US20260378560A1, “APPROACHES TO DESIGNING AND PERFORMING COMPRESSED BIOLOGICAL EXPERIMENTS AND SYSTEMS FOR IMPLEMENTING THE SAME” (EXVIVO LABS INC., priority 2023, published 2026)

Columns and labels:
CCRF-HSB2 [1] = assay: ATP-based luminescence cell viability (CellTiter Glo), drug response score, CCRF-HSB2; conditions: CCRF-HSB2, screened individually (Compress: None)
REH = assay: ATP-based luminescence cell viability (CellTiter Glo), drug response score, REH; design: scale not given here; conditions: for DRS from deconvolution: Sample compression, 5 Pick 3 pools; for drug response score (DRS): screened individually (Compress: None)
CCRF-HSB2 [2] = assay: ATP-based luminescence cell viability (CellTiter Glo), drug response score, CCRF-HSB2
Source text: (§1) As part of a screen, a drug could be screened at different concentrations ranging from a lowest concentration to a highest concentration. In such a scenario, multiple data structures may be obtained by the screening platform 210. […] With these multiple data structures, the analysis module 218 can generate a dose-response curve that describes the magnitude of the response of the biological target, as a function of exposure to different concentrations of the drug. Further, the analysis module 218 can calculate a metric that is indicative of the response of the biological target. In the event that the biological target is one of multiple biological targets that are introduced to the pools of drugs, the metric can be used by the screening platform 210 to better understand the relative magnitude of responses. One example of a metric is drug-response score (“DRS”). DRS can be calculated as a continuous function of multiple parameters of the non-linear dose-response curve, including the slope at the half-maximal effective concentration (also called “EC50”) and the top and bottom asymptotes of the dose-response curve. DRS can be calculated as follows: […]
(§2) where y is a continuous function of the variable dose x, a is the maximal response (i.e., the top asymptote of the curve), b is the slope of the curve, c is the IC50 (i.e., half-maximal inhibitory concentration), and d is the minimal response (i.e., the bottom asymptote of the curve). Other examples of metrics include those output by sigmoidal and Hill slide functions that, like DRS, incorporate multiple aspects of the dose-response curve into a continuous function.
(§3) Total cell viability was measured for each cancer cell line using an Adenosine TriPhosphate (“ATP”) assay, and more specifically an ATP-based luminescence assay (i.e., CellTiter Glo). Each cancer drug was screened at multiple concentrations ranging from one nanomolar (nM) to ten micromolar (UM) in order to generate a dose-response curve and calculate a drug response score (“DRS”) for each cancer cell line. The DRS was calculated as a continuous function of multiple parameters of the non-linear dose-response curve, including the slope at the half-maximal effective concentration (also called “EC50”) and the top and bottom asymptotes of the dose-response curve. […] After total cell viability was measured and DRS was calculated, the DRS of each cancer cell line in the pool was deconvolved for each cancer drug.
(§4) DRS for these anchor cell lines are bolded and italicized. Anchors can be identified based on frequency of the cell lines in pools with high DRS versus low DRS. At a high level, an anchor is predicted to be the cell line with the lowest individual DRS. In order to deconvolute individual cell line DRS values from pool DRS values, the anchor can start with an assumed DRS value of zero. Each pool can then be expressed as a polynomial of variables (cell lines in the pool) and constants (DRS value of the pool). The DRS value of each cell line can then be solved for using the anchor value and overlapping polynomial expressions. When multiple values are calculated for the final target solved from the polynomials, then the anchor has a non-zero value that can be determined based on the difference in the calculated value of the final target.
(§5) Each pool represented a co-culture of three cell lines (“Target Compression”).

CCRF-CFM = assay: ATP-based luminescence cell viability (CellTiter Glo), drug response score, CCRF-CFM; design: scale not given here; conditions: for DRS from deconvolution: Sample compression, 5 Pick 3 pools; for drug response score (DRS): screened individually (Compress: None)
[3] = tested on: library of cancer cell lines; assay: Hit profile of cancer drugs across library of cancer cell lines (cell viability); format: cell-based; conditions: across cancer cell lines screened individually
Protocol: Total cell viability was measured for each cancer cell line using an Adenosine TriPhosphate (“ATP”) assay, and more specifically an ATP-based luminescence assay (i.e., CellTiter Glo). Each cancer drug was screened at multiple concentrations ranging from one nanomolar (nM) to ten micromolar (UM) in order to generate a dose-response curve and calculate a drug response score (“DRS”) for each cancer cell line. The DRS was calculated as a continuous function of multiple parameters of the non-linear dose-response curve, including the slope at the half-maximal effective concentration (also called “EC50”) and the top and bottom asymptotes of the dose-response curve. […]
Table I includes several examples of cancer drugs and their DRSs across each cancer cell line in the aforementioned experiment.

JURKAT = assay: ATP-based luminescence cell viability (CellTiter Glo), drug response score, JURKAT; conditions: screened individually (Compress: None)
NALM-6 = assay: ATP-based luminescence cell viability (CellTiter Glo), drug response score, NALM-6; conditions: for DRS from deconvolution: NALM-6, Target compression, 7 Pick 3 pools; for drug response score (DRS): NALM-6, screened individually (Compress: None)
Source text: as §1, §2, §3, §4, §5

MOLT-4 [4] = assay: ATP-based luminescence cell viability (CellTiter Glo), drug response score, MOLT-4; conditions: MOLT-4, screened individually (Compress: None)
Source text: as §1, §2
Total cell viability was measured for each cancer cell line using an Adenosine TriPhosphate (“ATP”) assay, and more specifically an ATP-based luminescence assay (i.e., CellTiter Glo). […] The DRS was calculated as a continuous function of multiple parameters of the non-linear dose-response curve, including the slope at the half-maximal effective concentration (also called “EC50”) and the top and bottom asymptotes of the dose-response curve. […] After total cell viability was measured and DRS was calculated, the DRS of each cancer cell line in the pool was deconvolved for each cancer drug.
DRS for these anchor cell lines are bolded and italicized. […] Each pool can then be expressed as a polynomial of variables (cell lines in the pool) and constants (DRS value of the pool). […] When multiple values are calculated for the final target solved from the polynomials, then the anchor has a non-zero value that can be determined based on the difference in the calculated value of the final target. […]

MOLT-4 [5] = assay: as above
[6] = tested on: co-culture of three cancer cell lines; assay: Cell viability (CellTiter Glo) of compressed target pools, co-cultures of three cell lines (Target Compression); format: cell-based
Protocol: as §3, §5

[7] = CCRF-HSB2, Sample compression, 5 Pick 3 pools
[8] = CCRF-HSB2, Target compression, 5 Pick 3 pools
[9] = CCRF-HSB2, Target compression, 6 Pick 3 pools
[10] = CCRF-HSB2, Target compression, 7 Pick 3 pools
[11] = MOLT-4, Sample compression, 5 Pick 3 pools
[12] = MOLT-4, Target compression, 5 Pick 3 pools
[13] = MOLT-4, Target compression, 6 Pick 3 pools
[14] = MOLT-4, Target compression, 7 Pick 3 pools
[15] = 5 Pick 3, Pool 1 (REH, SUP-B15, CCRF-CFM)
[16] = 5 Pick 3, Pool 2 (SUP-B15, CCRF-HSB2, MOLT-4)
[17] = 5 Pick 3, Pool 3 (SUP-B15, CCRF-CFM, CCRF-HSB2)
[18] = 5 Pick 3, Pool 4 (REH, CCRF-CFM, MOLT-4)
[19] = 5 Pick 3, Pool 5 (REH, CCRF-HSB2, MOLT-4)
[20] = 6 Pick 3, Pool 1 (REH, CCRF-CFM, MOLT-4)
[21] = 6 Pick 3, Pool 2 (REH, CCRF-HSB2, MOLT-4)
[22] = 6 Pick 3, Pool 3 (REH, CCRF-CFM, JURKAT)
[23] = 6 Pick 3, Pool 4 (SUP-B15, CCRF-HSB2, JURKAT)
[24] = 6 Pick 3, Pool 5 (SUP-B15, CCRF-CFM, JURKAT)
[25] = 6 Pick 3, Pool 6 (SUP-B15, CCRF-HSB2, MOLT-4)
[26] = 7 Pick 3, Pool 1 (SUP-B15, CCRF-CFM, JURKAT)
[27] = 7 Pick 3, Pool 2 (SUP-B15, CCRF-HSB2, NALM-6)
[28] = 7 Pick 3, Pool 3 (SUP-B15, CCRF-CFM, NALM-6)
[29] = 7 Pick 3, Pool 4 (REH, CCRF-HSB2, JURKAT)
[30] = 7 Pick 3, Pool 5 (REH, MOLT-4, NALM-6)
[31] = 7 Pick 3, Pool 6 (REH, MOLT-4, JURKAT)
[32] = 7 Pick 3, Pool 7 (CCRF-CFM, CCRF-HSB2, MOLT-4)

| SMILES | drug response score (DRS) (CCRF-HSB2 [1]) | DRS from deconvolution (REH) | drug response score (DRS) (REH) | DRS from deconvolution (CCRF-HSB2 [2]; [7]) | DRS from deconvolution (CCRF-HSB2 [2]; [8]) | DRS from deconvolution (CCRF-HSB2 [2]; [9]) | DRS from deconvolution (CCRF-HSB2 [2]; [10]) | DRS from deconvolution (CCRF-CFM) | drug response score (DRS) (CCRF-CFM) | Hits (hit profile) [3] | drug response score (DRS) (JURKAT) | DRS from deconvolution (NALM-6) | drug response score (DRS) (NALM-6) | drug response score (DRS) (MOLT-4 [4]) | DRS from deconvolution (MOLT-4 [5]; [11]) | DRS from deconvolution (MOLT-4 [5]; [12]) | DRS from deconvolution (MOLT-4 [5]; [13]) | DRS from deconvolution (MOLT-4 [5]; [14]) | DRS of pool [6, 15] | DRS of pool [6, 16] | further results |
| --- | --- | --- | --- | --- | --- | --- | --- | --- | --- | --- | --- | --- | --- | --- | --- | --- | --- | --- | --- | --- | --- |
| COc1c(OCCCN2CCOCC2)ccc2c1N=C(NC(=O)c1cnc(N)nc1)N1CCN=C21 [Copanlisib] | 6.94 | 12.99 | 13.24 | 7.35 | 7.82 | 7.97 | 7.10 | 15.72 | 15.14 | Multiple | 1.34 | 13.74 | 13.14 | 9.44 | 12.24 | 11.02 | 8.72 | 9.83 | 10.53 | 6.47 | DRS of pool [6, 17]: 8.68; DRS of pool [6, 18]: 13.21; DRS of pool [6, 19]: 10.79; DRS of pool [6, 20]: 12.63; DRS of pool [6, 21]: 9.99; DRS of pool [6, 22]: 9.72; DRS of pool [6, 23]: 6.40; DRS of pool [6, 24]: 6.40; DRS of pool [6, 25]: 6.47; DRS of pool [6, 26]: 6.55; DRS of pool [6, 27]: 7.58; DRS of pool [6, 28]: 10.22; DRS of pool [6, 29]: 7.17; DRS of pool [6, 30]: 11.88; DRS of pool [6, 31]: 8.07; DRS of pool [6, 32]: 10.65 |
| N#Cc1ccnc(N2C(=O)CC[C@H]2C(=O)N(c2cncc(F)c2)[C@H](C(=O)NC2CC(F)(F)C2)c2ccccc2Cl)c1 [Ivosidenib] | 1.60 | 0.48 | 0.60 | 1.52 | 1.74 | 1.53 | 1.61 | 0.99 | 1.00 | None | 0.70 | 0.00 | 0.00 | 0.20 | 0.06 | 0.21 | 0.30 | 0.22 | 0.54 | 0.60 | DRS of pool [6, 17]: 0.91; DRS of pool [6, 18]: 0.63; DRS of pool [6, 19]: 0.88; DRS of pool [6, 20]: 0.60; DRS of pool [6, 21]: 0.81; DRS of pool [6, 22]: 0.77; DRS of pool [6, 23]: 0.61; DRS of pool [6, 24]: 0.57; DRS of pool [6, 25]: 0.61; DRS of pool [6, 26]: 0.57; DRS of pool [6, 27]: 0.54; DRS of pool [6, 28]: 0.34; DRS of pool [6, 29]: 0.98; DRS of pool [6, 30]: 0.27; DRS of pool [6, 31]: 0.51; DRS of pool [6, 32]: 0.95 |
| Cc1[nH]c2ccccc2c1CCNCc1ccc(/C=C/C(=O)NO)cc1 [Panobinostat] | 17.40 | 12.17 | 12.60 | 18.63 | 19.75 | 17.30 | 17.26 | 18.07 | 17.50 | All | 13.20 | 15.85 | 16.30 | 15.10 | 14.56 | 15.32 | 15.84 | 14.94 | 17.85 | 18.46 | DRS of pool [6, 17]: 20.02; DRS of pool [6, 18]: 15.81; DRS of pool [6, 19]: 16.48; DRS of pool [6, 20]: 15.05; DRS of pool [6, 21]: 15.25; DRS of pool [6, 22]: 14.41; DRS of pool [6, 23]: 18.23; DRS of pool [6, 24]: 17.93; DRS of pool [6, 25]: 18.22; DRS of pool [6, 26]: 17.85; DRS of pool [6, 27]: 18.41; DRS of pool [6, 28]: 18.84; DRS of pool [6, 32]: 16.92 |
| CC1(C)CCC(CN2CCN(c3ccc(C(=O)NS(=O)(=O)c4ccc(NCC5CCOCC5)c([N+](=O)[O-])c4)c(Oc4cnc5[nH]ccc5c4)c3)CC2)=C(c2ccc(Cl)cc2)C1 [Venetoclax] | 0.00 | 1.15 | 3.80 | 0.00 | 0.00 | 0.00 | 0.00 | 0.50 | 1.10 | One | 0.00 | 9.54 | 7.30 | 2.90 | 1.26 | 0.87 | 2.79 | 2.98 | 14.50 | 13.53 | DRS of pool [6, 17]: 13.46; DRS of pool [6, 18]: 2.70; DRS of pool [6, 19]: 2.43; DRS of pool [6, 20]: 2.60; DRS of pool [6, 21]: 2.26; DRS of pool [6, 22]: 1.57; DRS of pool [6, 23]: 13.22; DRS of pool [6, 24]: 12.95; DRS of pool [6, 25]: 13.01; DRS of pool [6, 26]: 12.97; DRS of pool [6, 27]: 14.37; DRS of pool [6, 28]: 15.70; DRS of pool [6, 29]: 1.25; DRS of pool [6, 30]: 4.62; DRS of pool [6, 31]: 2.25; DRS of pool [6, 32]: 1.35 |
